Laboratory results taken from patent US12390536B2, “Antibody-drug complex containing toll-like receptor 7/8 dual agonist compound” (ASTELLAS PHARMA INC., priority 2022, dated 2025).
Counter-ions that a name gives are not always drawn.

Assays:
mouse TLR7 = target: T1, mouse TLR7 (Mus musculus, UniProt P58681); assay: TLR7/8 reporter assay (HEK293, NFκB Nanoluc luciferase reporter), mouse TLR7; format: cell-based; conditions: 24-hour incubation; read-out: mTLR7 EC50
T1 construct: expressed in transfected cells
T1 sequence (P58681 27-1050): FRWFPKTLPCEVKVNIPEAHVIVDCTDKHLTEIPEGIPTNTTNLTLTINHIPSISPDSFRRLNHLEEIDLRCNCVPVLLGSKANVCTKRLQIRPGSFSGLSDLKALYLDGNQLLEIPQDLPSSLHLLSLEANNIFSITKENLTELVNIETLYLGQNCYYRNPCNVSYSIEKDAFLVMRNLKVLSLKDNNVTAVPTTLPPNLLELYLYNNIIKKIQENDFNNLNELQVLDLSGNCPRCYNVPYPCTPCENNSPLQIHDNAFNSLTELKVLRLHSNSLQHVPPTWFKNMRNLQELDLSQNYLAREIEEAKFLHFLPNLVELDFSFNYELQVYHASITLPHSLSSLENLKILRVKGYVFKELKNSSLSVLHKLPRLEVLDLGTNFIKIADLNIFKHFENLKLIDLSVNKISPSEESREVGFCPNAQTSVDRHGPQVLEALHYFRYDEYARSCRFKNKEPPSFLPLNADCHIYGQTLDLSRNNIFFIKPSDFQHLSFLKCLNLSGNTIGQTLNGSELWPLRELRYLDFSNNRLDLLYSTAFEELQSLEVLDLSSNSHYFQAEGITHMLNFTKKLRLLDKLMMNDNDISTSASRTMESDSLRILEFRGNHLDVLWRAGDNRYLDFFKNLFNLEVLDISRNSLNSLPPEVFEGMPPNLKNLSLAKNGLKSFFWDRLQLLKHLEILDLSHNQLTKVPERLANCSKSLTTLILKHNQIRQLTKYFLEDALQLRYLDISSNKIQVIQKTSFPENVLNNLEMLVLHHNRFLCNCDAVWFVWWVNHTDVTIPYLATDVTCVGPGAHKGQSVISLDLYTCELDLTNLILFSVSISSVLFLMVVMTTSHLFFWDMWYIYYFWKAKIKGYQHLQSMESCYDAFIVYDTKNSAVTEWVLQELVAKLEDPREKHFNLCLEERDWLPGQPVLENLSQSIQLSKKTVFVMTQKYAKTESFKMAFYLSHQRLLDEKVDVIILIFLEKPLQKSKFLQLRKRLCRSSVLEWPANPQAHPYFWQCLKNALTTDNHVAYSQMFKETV
Procedure: (§1) HEK293 cells (ATCC, #CRL-1573) were co-transfected with an expression vector having a nucleotide sequence encoding a TLR (human TLR7, human TLR8 or mouse TLR7) protein and a Nanoluc PEST luciferase reporter vector having an NFκB response element sequence (Genbank: JQ513377 bases 33 to 84) integrated therein. Thereafter, the transfected cells were cultured in DMEM (Sigma-Aldrich, #D5796-500 mL) containing Geneticin (Gibco, #10131-027) at a final concentration of 800 μg/mL, Hygromycin B (Invitrogen, #10687010) at a final concentration of 500 μg/mL, penicillin streptomycin (Gibco, #15070-063) at a final concentration of 1% and a 10% fetal bovine serum (FBS) (HyClone, #SH30084.03) to obtain a stable cell line for expression.
(§2) To reporter cells obtained above, DMEM containing 10% FBS was added to prepare a suspension of 1×10^5 cells/mL. The suspension was added to the wells of a 384-well white plate coated with collagen I (hereinafter referred to as “384-well plate”, Corning, #356703) at a rate of 20 μL per well. The cells were cultured in the conditions of 37° C. and 5% CO2, overnight (18 hours) and allowed to adhere to the plate. A test sample was dissolved in DMSO. The solution was diluted by adding DMEM medium containing 10% FBS to the solution such that the concentration becomes 5-fold as high as a final concentration. The diluted DMEM medium was added to the wells of the 384-well plate at a ratio of 5 μL/well. After the medium was further incubated in the conditions of 37° C. and 5% CO2 for 24 hours, the plate was taken out and allowed to stand still at room temperature for 10 minutes. Thereafter, chemiluminescence was measured using Nano-Glo Luciferase Assay System (Promega, #N1120) and EnVision 2104 (PerkinElmer) plate reader. A dose-response curve was prepared for each test sample and the EC50 value was obtained as a concentration at 50% of the maximum signal. In the table, hTLR7 represents human TLR7 and hTLR8 represents human TLR8; and mTLR7 represents mouse TLR7. A data item attached with an asterisk (*) indicates the result of 7 hour-incubation and other data items are the results of 24-hour incubation.

human TLR7 = target: T2, human TLR7 (Homo sapiens, UniProt Q9NYK1); assay: TLR7/8 reporter assay (HEK293, NFκB Nanoluc luciferase reporter), human TLR7; format: cell-based; conditions: 24-hour incubation; read-out: hTLR7 EC50
T2 construct: expressed in transfected cells
T2 sequence (Q9NYK1 27-1049): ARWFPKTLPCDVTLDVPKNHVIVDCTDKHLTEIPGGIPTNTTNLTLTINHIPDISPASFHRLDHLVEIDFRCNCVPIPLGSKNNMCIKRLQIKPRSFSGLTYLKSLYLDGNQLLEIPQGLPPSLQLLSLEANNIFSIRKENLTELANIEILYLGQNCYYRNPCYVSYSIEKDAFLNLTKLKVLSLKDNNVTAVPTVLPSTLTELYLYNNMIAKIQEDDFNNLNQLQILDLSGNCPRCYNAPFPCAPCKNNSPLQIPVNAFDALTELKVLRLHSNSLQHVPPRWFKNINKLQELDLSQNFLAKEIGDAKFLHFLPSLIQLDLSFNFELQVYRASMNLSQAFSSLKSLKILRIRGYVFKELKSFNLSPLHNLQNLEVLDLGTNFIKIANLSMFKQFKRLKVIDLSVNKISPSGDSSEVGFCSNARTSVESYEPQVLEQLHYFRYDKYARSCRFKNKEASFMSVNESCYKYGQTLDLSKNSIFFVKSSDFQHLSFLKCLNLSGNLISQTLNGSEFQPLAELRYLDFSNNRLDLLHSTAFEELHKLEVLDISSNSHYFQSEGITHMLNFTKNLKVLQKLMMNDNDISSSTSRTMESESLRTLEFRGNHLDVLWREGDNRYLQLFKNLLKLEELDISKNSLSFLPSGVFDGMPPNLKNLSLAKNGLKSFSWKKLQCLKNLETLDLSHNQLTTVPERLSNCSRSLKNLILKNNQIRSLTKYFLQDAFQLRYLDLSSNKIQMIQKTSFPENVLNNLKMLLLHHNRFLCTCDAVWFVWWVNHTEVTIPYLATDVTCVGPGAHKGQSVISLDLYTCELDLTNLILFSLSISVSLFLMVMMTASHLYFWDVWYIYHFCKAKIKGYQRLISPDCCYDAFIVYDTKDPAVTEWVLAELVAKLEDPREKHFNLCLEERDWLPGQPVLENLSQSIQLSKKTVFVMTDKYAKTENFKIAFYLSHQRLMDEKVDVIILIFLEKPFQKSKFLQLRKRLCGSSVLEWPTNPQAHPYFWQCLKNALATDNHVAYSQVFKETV
Procedure: as §1, §2

| SMILES | EC50 (mouse TLR7) [nM] | EC50 (human TLR7) [nM] |
| --- | --- | --- |
| CCCCCNc1nc(N)nc2ccn(Cc3ccc(CN4CCN[C@@H](CF)C4)cc3OC)c12 [Ex2, 5-[(4-{[(3R)-3-(fluoromethyl)piperazin-1-yl]methyl}-2-methoxyphenyl)methyl]-N^4-pentyl-5H-pyrrolo[3,2-d]pyrimidine-2,4-diamine (trifluoroacetic acid) salt] | 5.36 | 1.77 |
| CCCCCNc1nc(N)nc2ccn(Cc3ccc(CNC4CC4)cc3OC)c12 [Ex3, 5-({4-[(cyclopropylamino)methyl]-2-methoxyphenyl}methyl)-N^4-pentyl-5H-pyrrolo[3,2-d]pyrimidine-2,4-diamine] | 6.17 | 3.47 |
| CCCCCSc1nc(N)nc2ccn(Cc3ccc(CN4CCNCC4)cc3OC)c12 [Ex4, 5-({2-methoxy-4-[(piperazin-1-yl)methyl]phenyl}methyl)-4-(pentylsulfanyl)-5H-pyrrolo[3,2-d]pyrimidin-2-amine] | 39.9 | 54.2 |
| CCCCCNc1nc(N)nc2cc(C)n(Cc3ccc(CN4CCNCC4)cc3OC)c12 [Ex8, 5-({2-methoxy-4-[(piperazin-1-yl)methyl]phenyl}methyl)-6-methyl-N^4-pentyl-5H-pyrrolo[3,2-d]pyrimidine-2,4-diamine hydrochloride] | 23.5 | 11.3 |
| CCCCCNc1nc(N)nc2ccn(Cc3ccc(CC4CCNCC4)cc3OC)c12 [Ex9, 5-({2-methoxy-4-[(piperidin-4-yl)methyl]phenyl}methyl)-N^4-pentyl-5H-pyrrolo[3,2-d]pyrimidine-2,4-diamine] | 4.81 | 2.78 |
| COc1cc(CN2CCNC[C@H]2CF)ccc1Cn1ccc2nc(N)nc(SCc3cc(C)on3)c21 [Ex11] | 9.2 | 17.8 |
| CCCCCNc1nc(N)nc2ccn(Cc3ccc(CNCC4CCC4)cc3OC)c12 [Ex12] | 3.58 | 1.87 |
| CCCCCSc1nc(N)nc2ccn(Cc3ccc(CN4CCC(O)CC4)cc3OC)c12 [Ex14] | 27.3 | 28.8 |
| CCCCCSc1nc(N)nc2ccn(Cc3ccc(CN4CC[C@@H](CN)C4)cc3OC)c12 [Ex15] | 111 | 138 |

Further lines, results first:

| EC50 (mouse TLR7) [nM] | EC50 (human TLR7) [nM] | SMILES |
| --- | --- | --- |
| 2.92 | 1.12 | CCCCCNc1nc(N)nc2ccn(Cc3ccc(CN4CCNC[C@H]4CF)cc3OC)c12 [Ex1, 5-[(4-{[(2S)-2-(fluoromethyl)piperazin-1-yl]methyl}-2-methoxyphenyl)methyl]-N^4-pentyl-5H-pyrrolo[3,2-d]pyrimidine-2,4-diamine] |
| 26.7 | 45 | CCCCCSc1nc(N)nc2ccn(Cc3ccc(CN4CCC[C@H]4CO)cc3OC)c12 [Ex5, {(2S)-1-[(4-{[2-amino-4-(pentylsulfanyl)-5H-pyrrolo[3,2-d]pyrimidin-5-yl]methyl}-3-methoxyphenyl)methyl]pyrrolidin-2-yl}methanol] |
| 10.1 | 3.22 | CCCCCNc1nc(N)nc2c(Cl)cn(Cc3ccc(CN4CCC[C@H]4CO)cc3OC)c12 [Ex6, {(2S)-1-[(4-{[2-amino-7-chloro-4-(pentylamino)-5H-pyrrolo[3,2-d]pyrimidin-5-yl]methyl}-3-methoxyphenyl)methyl]pyrrolidin-2-yl}methanol] |
| 21.5 | 8.1 | CCCCCNc1nc(N)nc2c(Br)cn(Cc3ccc(CN4CCC[C@H]4CO)cc3OC)c12 [Ex7, {(2S)-1-[(4-{[2-amino-7-bromo-4-(pentylamino)-5H-pyrrolo[3,2-d]pyrimidin-5-yl]methyl}-3-methoxyphenyl)methyl]pyrrolidin-2-yl}methanol] |
| 8.75 | 2.74 | CCCCCNc1nc(N)nc2ccn(Cc3ccc(CN4CCNC[C@@H]4CF)cc3OC)c12 [Ex10, 5-[(4-{[(2R)-2-(fluoromethyl)piperazin-1-yl]methyl}-2-methoxyphenyl)methyl]-N^4-pentyl-5H-pyrrolo[3,2-d]pyrimidine-2,4-diamine] |
| 17.4 | 23.3 | CCCCCSc1nc(N)nc2ccn(Cc3ccc(CN4CC[C@H]4CO)cc3OC)c12 [Ex13] |
| 7.11 | 2.52 | CCCCCNc1nc(N)nc2c(Cl)cn(Cc3ccc(CN4CC[C@H]4CO)cc3OC)c12 [Ex17] |
| 13.9 | 6.57 | CCCCCNc1nc(N)nc2c(Cl)cn(Cc3ccc(CN4CCC[C@H]4C(C)(C)O)cc3OC)c12 [Ex18] |
